Laboratory results reported in patent US20050148505A1, “Genes and agents to regulate follicular development, ovulation cycle and steriodogenesis” (priority 2003, published 2005).

Key:
granulosa cells = assay: Estrogen production by granulosa cells, assayed in culture media; type: cell-based; details: for FSH-induced estrogen production: FSH pre-treated granulosa cells
Experimental: FIG. 7. Effects of T3 hormone on estrogen production. (A) Granulosa cells were treated with increasing concentrations of FSH and the culture media were assayed for estrogen production. (B) Granulosa cells that were pre-treated with FSH were treated with T3 for varying time periods, 0-4 days. The culture media were assayed for estrogen. (C) Granulosa cells were treated with none, thyroid hormone T3, FSH, or FSH and T3 combo for 3 or 5 days. The culture media were assayed for estrogen production. […] The culture media were assayed for estrogen production.

CTBP mRNA = CTBP mRNA expression in primary granulosa cell culture by semi-quantitative RT-PCR; type: cell-based, rat; details: 6 h; for CTBP mRNA level, inhibitor alone in the absence of FSH: CHX 10 μg/ml or α-amanitin 30 μg/ml, compared to control
Experimental: FIG. 3. CTBP mRNA expression in primary granulosa cell culture. Granulosa cells were isolated from the ovaries of 24 day old immature rat primed with 17β-estradiol. The cells were cultured in the presence of 30 ng/ml FSH for up to 48 h, and RNA was extracted and amplified for CTBP using quantitative RT-PCR. In addition, L-19 mRNA was probed as an internal control. The CTBP values were normalized with the corresponding values of L-19 and two independent experimental values were averaged.
FIG. 5. Effects of cycloheximide and α-amanitin treatment on the FSH/forskolin-induced expression of CTBP mRNA. Granulosa cells were isolated from 17β-estradiol primed 24-day old immature rat ovaries and cultured with FSH (30 ng/ml) or forskolin (10 μM, FSK) in the presence or absence of cycloheximide (10 μg/ml, CHX) or α-amanitin (30 μg/ml, AMA) for the 6 h. CHX, a translation inhibitor, and AMA, a transcription inhibitor, were pretreated to the cell cultures one hour before hormone treatment. Total RNA was isolated and analyzed for CTBP and L-19 mRNA by semi-quantitative RT-PCR assay using 23 cycles for CTBP and 20 cycles for L-19. L-19 was used as an internal control. Values shown are the range of two independent experiments along with the mean, indicated by bars.
For granulosa cell culture, immature rats were daily injected sub cutaneously with 1.5 mg of 17β-estradiol at 21, 22 and 23 days of age. […] After cells were washed three times in 4F, they were plated on serum-coated, 6-well plates at a density of ˜1×10^6 cells per […] and incubated in the humidified atmosphere of 5% CO2 at 37 C. After 16 h, FSH (30 ng/ml) or forskolin (10 μM) was added to the cultures. For the inhibition of protein synthesis or transcription, cycloheximide (10 μg/ml) or α-amanitin (30 μg/ml) was added, respectively, 1 h before hormone treatment.
RT-PCR was performed as previously described (Ko et al. 1999 Endocrinology 140:5185-519411). Total RNA (1-2 μg) was reverse-transcribed at 37° C. in 20 μl using random hexamer (500 ng) and MMLV reverse transcriptase (10 units) (New England BioLabs, Boston, Mass.). Complementary DNA (cDNA) in 2 μl was added for a total 25 μl reaction mixture containing the primers (200 ng each), 0.4 mM dNTP mixture, and Taq DNA polymerase (2.5 U) in 1×PCR buffer (10 mM Tris, pH 8.3, 50 mM KCl, 1.5 mM MgCl2, 0.01% gelatin). All PCR amplifications were carried out for 20, 25, 30 cycles on a MJ research Minicycler (MJ Research, MA). PCR products were separated by 2% agarose gel electrophoresis, stained with SYBR® Green I (Molecular Probes), and visualized on a phosphoimager. The primers were 5′-ctg act ggc gag aac tgg atg-3′SEQ ID NO. 1) and 5′-aca gta tgc agg ctt cgc tcc-3′ (SEQ ID NO. 2) for 160 bp CTBP, 5′-gct ttc cct ctg ttg acc cac-3′(SEQ ID NO. 3) and 5′-aga tgt tga ggg cag ctc gat-3′(SEQ ID NO. 4) for 255 bp inhibin α, 5′-ctg aag gtc aaa ggg aat gtg-3′ (SEQ ID NO. 5) and 5′-gga cag agt ctt gat gat ctc-3′ (SEQ ID NO. 6) for 194 bp L-19 as an internal control.

Row | SMILES | FSH-induced estrogen synthesis (granulosa cells; FSH and T3 combo for 3 or 5 days) | FSH-induced estrogen production (granulosa cells; T3 by day 4) | FSH-induced estrogen production (granulosa cells; T3 within 24 h) | hCG-dependent estrogen production (granulosa cells; hCG and T3 combo for 3 or 5 days) | CTBP mRNA level, inhibitor alone in the absence of FSH (CTBP mRNA) | CTBP mRNA expression, co-treatment with FSH (CTBP mRNA; α-amanitin 30 μg/ml plus FSH 30 ng/ml) | FSH-dependent decrease in CTBP mRNA in the presence of inhibitor (CTBP mRNA; CHX 10 μg/ml added 1 h before FSH 30 ng/ml, compared with absence of CHX) | forskolin-induced reduction of CTBP mRNA level in the presence of inhibitor (CTBP mRNA; cycloheximide 10 μg/ml plus forskolin 10 μM)
1 | N[C@@H](Cc1cc(I)c(Oc2ccc(O)c(I)c2)c(I)c1)C(=O)O [T3] | suppresses | completely blocked | suppressed | stimulates | – | – | – | –
2 | CC[C@H](C)[C@@H]1NC(=O)CNC(=O)[C@@H]2Cc3c([nH]c4cc(O)ccc34)[S+]([O-])C[C@@H](NC(=O)CNC1=O)C(=O)N[C@@H](CC(N)=O)C(=O)N1C[C@H](O)C[C@H]1C(=O)N[C@@H]([C@@H](C)[C@@H](O)CO)C(=O)N2 (stereo in doubt) [α-amanitin] | – | – | – | – | did not significantly impact the expression level | completely abolished | – | –
3 | C[C@@H]1C[C@@H]([C@H](O)CC2CC(=O)NC(=O)C2)C(=O)[C@@H](C)C1 [cycloheximide] | – | – | – | – | increased the CTBP mRNA level | – | significantly less | partially prevented
